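Five compound concentrations were applied to cells in 96-well plates for 48 hours; endpoints were derived by simple linear interpolation of the resulting dose-response curve. GI50 marks 50% less growth.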 The source made the active and inactive calls. Rule as the data show it: active = GI50 up to about 1.1 µM and inactive = higher.
Key:
Assay in all cases: DTP human tumour cell line panel, 48 h
[1] = system: MOLT-4
[2] = system: RXF 393
[3] = system: NCI-H522
[4] = system: SR
[5] = system: NCI/ADR-RES
[6] = system: U-251
[7] = system: OVCAR-3
[8] = system: SK-OV-3
[9] = system: 786-0
[10] = system: K562
[11] = system: IGROV-1
[12] = system: OVCAR-5
[13] = system: HCT-15
[14] = system: A549
[15] = system: DMS-114
[16] = system: OVCAR-8
[17] = system: SN12C
[18] = system: SK-MEL-5
[19] = system: NCI-H226
[20] = system: UACC-62

Cc1cc2c(cc1C)[n+]([O-])c(C(=O)/C=C/c1ccc3c(c1)OCO3)c(C)[n+]2[O-]
GI50 [1]: > 100 µM (inactive) | GI50 [2]: 28.7 µM (inactive) | GI50 [3]: 27.6 µM (inactive) | GI50 [4]: > 100 µM (inactive) | GI50 [5]: 74.6 µM (inactive) | GI50 [6]: 25.4 µM (inactive) | GI50 [7]: > 86.1 µM (inactive) | GI50 [8]: 19.8 µM (inactive) | GI50 [9]: 36.6 µM (inactive) | GI50 [10]: > 100 µM (inactive) | GI50 [11]: 48.4 µM (inactive) | GI50 [12]: > 100 µM (inactive) | GI50 [13]: > 100 µM | GI50 [14]: > 92.9 µM (inactive) | GI50 [15]: 33.1 µM (inactive) | GI50 [16]: > 100 µM (inactive) | GI50 [17]: > 78.7 µM (inactive) | GI50 [18]: > 100 µM (inactive) | GI50 [19]: 86.5 µM (inactive) | GI50 [20]: 29.9 µM (inactive)

CCC1(OC(=O)CN2CCN(CCO)CC2)C(=O)OCc2c1cc1n(c2=O)Cc2cc3ccccc3nc2-1 (centres undefined)
GI50 [1]: 0.034 µM (active) | GI50 [2]: 0.593 µM (active) | GI50 [3]: 0.306 µM (active) | GI50 [4]: 0.0221 µM (active) | GI50 [5]: 0.11 µM (active) | GI50 [6]: 0.143 µM (active) | GI50 [7]: 1.96 µM (inactive) | GI50 [8]: 1.17 µM (inactive) | GI50 [9]: 0.13 µM (active) | GI50 [10]: 0.583 µM (active) | GI50 [11]: 0.778 µM (active) | GI50 [12]: 1.1 µM (active) | GI50 [13]: 1.49 µM | GI50 [14]: 0.307 µM (active) | GI50 [15]: 0.558 µM (active) | GI50 [16]: 0.522 µM (active) | GI50 [17]: 0.125 µM (active) | GI50 [18]: 0.281 µM (active) | GI50 [19]: 0.329 µM (active) | GI50 [20]: 0.0759 µM (active)

CC[C@@]1(OP(=O)(O)O)C(=O)OCc2c1cc1n(c2=O)Cc2cc3ccccc3nc2-1
GI50 [1]: 0.014 µM (active) | GI50 [2]: 0.454 µM (active) | GI50 [3]: 0.286 µM (active) | GI50 [4]: 0.00274 µM (active) | GI50 [5]: 0.0718 µM (active) | GI50 [6]: 0.0603 µM (active) | GI50 [7]: 2.73 µM (inactive) | GI50 [8]: 0.342 µM (active) | GI50 [9]: 0.0607 µM (active) | GI50 [10]: 0.438 µM (active) | GI50 [11]: 0.311 µM (active) | GI50 [12]: 0.231 µM (active) | GI50 [13]: 0.748 µM | GI50 [14]: 0.143 µM (active) | GI50 [15]: 0.0485 µM (active) | GI50 [16]: 0.224 µM (active) | GI50 [17]: 0.0883 µM (active) | GI50 [18]: 0.153 µM (active) | GI50 [19]: 0.179 µM (active) | GI50 [20]: 0.0381 µM (active)

Cc1cc(Cl)ccc1NC(=O)C1C(=O)N(c2ccc(Cl)cc2C)C(=O)/C1=N\N (centres undefined)
GI50 [1]: 27.9 µM (inactive) | GI50 [2]: > 100 µM (inactive) | GI50 [3]: 53.5 µM (inactive) | GI50 [4]: 26.6 µM (inactive) | GI50 [6]: 33 µM (inactive) | GI50 [7]: 30.8 µM (inactive) | GI50 [8]: 97.5 µM (inactive) | GI50 [9]: 81.3 µM (inactive) | GI50 [10]: 45.1 µM (inactive) | GI50 [11]: 55.1 µM (inactive) | GI50 [12]: 60.5 µM (inactive) | GI50 [13]: 34.8 µM | GI50 [14]: 34.4 µM (inactive) | GI50 [15]: 30.1 µM (inactive) | GI50 [16]: 48.3 µM (inactive) | GI50 [17]: 36.6 µM (inactive) | GI50 [18]: 30.5 µM (inactive) | GI50 [19]: 27 µM (inactive) | GI50 [20]: 35.8 µM (inactive)

NC(=O)c1cccc([C@@H]2O[C@H](CO)[C@@H](O)[C@H]2O)c1
GI50 [1]: 1.23 µM (inactive) | GI50 [2]: 8.89 µM (inactive) | GI50 [3]: 4.14 µM (inactive) | GI50 [4]: 23.7 µM (inactive) | GI50 [5]: 6.41 µM (inactive) | GI50 [6]: 11.5 µM (inactive) | GI50 [7]: 18.9 µM (inactive) | GI50 [8]: 7.21 µM (inactive) | GI50 [9]: 3.72 µM (inactive) | GI50 [10]: 3.17 µM (inactive) | GI50 [11]: 37.8 µM (inactive) | GI50 [12]: 47.4 µM (inactive) | GI50 [13]: 3.37 µM | GI50 [14]: 27.2 µM (inactive) | GI50 [15]: 15.3 µM (inactive) | GI50 [16]: 3.79 µM (inactive) | GI50 [17]: 40.4 µM (inactive) | GI50 [18]: 32.2 µM (inactive) | GI50 [19]: 12.5 µM (inactive) | GI50 [20]: 29.1 µM (inactive)
